Measured values taken from patent US10913736B2 (UNIVERSITY OF WASHINGTON, priority 2014, dated 2021).

What was measured:
MetRS (T. brucei) = MetRS (T. brucei) (Trypanosoma brucei brucei, UniProt Q38C91); test: MetRS (T. brucei) ATP depletion assay using Kinase-Glo; assay type: biochemical
T. brucei = test: Growth inhibition assay of T. brucei cell cultures (Alamar Blue, 48 h); assay type: cell-based; conditions: Trypanosoma brucei; read-out: B) T. brucei EC50

Sequence of MetRS (T. brucei) (Q38C91 entry or part of it): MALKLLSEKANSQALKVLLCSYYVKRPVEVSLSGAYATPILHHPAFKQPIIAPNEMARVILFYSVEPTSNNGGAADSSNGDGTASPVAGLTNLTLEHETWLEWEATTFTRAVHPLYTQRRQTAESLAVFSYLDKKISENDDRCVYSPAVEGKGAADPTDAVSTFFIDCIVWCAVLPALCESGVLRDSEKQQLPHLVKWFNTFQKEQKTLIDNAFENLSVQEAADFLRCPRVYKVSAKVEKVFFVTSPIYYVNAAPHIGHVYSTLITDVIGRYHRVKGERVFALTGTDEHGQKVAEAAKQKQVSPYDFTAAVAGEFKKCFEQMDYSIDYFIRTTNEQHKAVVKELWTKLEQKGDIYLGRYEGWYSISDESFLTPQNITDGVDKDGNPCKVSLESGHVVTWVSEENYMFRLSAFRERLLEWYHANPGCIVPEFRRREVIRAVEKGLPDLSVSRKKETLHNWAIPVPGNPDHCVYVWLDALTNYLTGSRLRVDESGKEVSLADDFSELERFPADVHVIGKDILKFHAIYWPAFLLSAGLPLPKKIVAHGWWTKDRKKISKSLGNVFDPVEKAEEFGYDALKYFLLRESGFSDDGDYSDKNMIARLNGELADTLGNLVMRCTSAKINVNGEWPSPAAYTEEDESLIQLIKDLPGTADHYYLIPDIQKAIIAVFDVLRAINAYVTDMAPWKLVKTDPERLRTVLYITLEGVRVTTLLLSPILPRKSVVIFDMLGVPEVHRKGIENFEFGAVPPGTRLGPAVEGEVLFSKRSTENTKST

`COc1ccc(Oc2cccc(NCCc3nc4ccccc4[nH]3)n2)c(Cl)c1` [Compound 1918, N-[2-(1H-1,3-benzodiazol-2-yl)ethyl]-6-(2-chloro-4-methoxyphenoxy)pyridin-2-amine] was tested, and the IC50 (MetRS (T. brucei)) was 1110 nM and the EC50 (T. brucei) was 9560 nM.
Work on `CCOc1c(Cl)cc(Cl)cc1CN[C@H]1CCCN(c2nc3nc(Cl)ccc3[nH]2)C1` [Compound 1920, (S)-1-(5-chloro-1H-imidazo[4,5-b]pyridin-2-yl)-N-(3,5-dichloro-2-ethoxybenzyl)piperidin-3-amine] yielded an IC50 (MetRS (T. brucei)) of 16 nM and an EC50 (T. brucei) of 111 nM.
`Clc1cc(Cl)cc(NC[C@H]2CCCN(c3nc4nc(Cl)ccc4[nH]3)C2)c1` [Compound 1922, (R)-3,5-dichloro-N-((1-(5-chloro-1H-imidazo[4,5-b]pyridin-2-yl)piperidin-3-yl)methyl)aniline] showed an IC50 (MetRS (T. brucei)) of 140 nM and an EC50 (T. brucei) of 2760 nM.
With `COc1ccc(Oc2cccc(NCc3nc4ccccc4[nH]3)n2)c(Cl)c1` [Compound 1924, N-((1H-benzo[d]imidazol-2-yl)methyl)-6-(2-chloro-4-methoxyphenoxy)pyridin-2-amine] the IC50 (MetRS (T. brucei)) was 165 nM and the EC50 (T. brucei) was 3280 nM.
In the case of `CCCOc1c(Cl)cc(Cl)cc1CN[C@H]1CCCN(c2nc3nc(Cl)ccc3[nH]2)C1` [Compound 1927, (S)-1-(5-chloro-1H-imidazo[4,5-b]pyridin-2-yl)-N-(3,5-dichloro-2-propoxybenzyl)piperidin-3-amine], the IC50 (MetRS (T. brucei)) is reported as 47 nM and the EC50 (T. brucei) is reported as 827 nM.
For `C=CCOc1c(Cl)cc(Cl)cc1CN[C@H]1CCCN(c2nc3nc(Cl)ccc3[nH]2)C1` [Compound 1928, (S)—N-(2-(allyloxy)-3,5-dichlorobenzyl)-1-(5-chloro-1H-imidazo[4,5-b]pyridin-2-yl)piperidin-3-amine], the IC50 (MetRS (T. brucei)) was 21 nM and the EC50 (T. brucei) was 326 nM.
With `Clc1cc(Cl)c(OCC2CC2)c(CN[C@H]2CCCN(c3nc4nc(Cl)ccc4[nH]3)C2)c1` [Compound 1929, (S)-1-(5-chloro-1H-imidazo[4,5-b]pyridin-2-yl)-N-(3,5-dichloro-2-(cyclopropylmethoxy)benzyl)piperidin-3-amine] the IC50 (MetRS (T. brucei)) was 29 nM and the EC50 (T. brucei) was 511 nM.
Compound `Clc1cc(Cl)c(OC2CC2)c(CN[C@H]2CCCN(c3nc4nc(Cl)ccc4[nH]3)C2)c1` [Compound 1930, (S)-1-(5-chloro-1H-imidazo[4,5-b]pyridin-2-yl)-N-(3,5-dichloro-2-cyclopropoxybenzyl)piperidin-3-amine] has an IC50 (MetRS (T. brucei)) of 389 nM and an EC50 (T. brucei) of 3120 nM.
For `CC(C)Oc1c(Cl)cc(Cl)cc1CN[C@H]1CCCN(c2nc3nc(Cl)ccc3[nH]2)C1` [Compound 1931, (S)-1-(5-chloro-1H-imidazo[4,5-b]pyridin-2-yl)-N-(3,5-dichloro-2-isopropoxybenzyl)piperidin-3-amine], the IC50 (MetRS (T. brucei)) was 305 nM and the EC50 (T. brucei) was 1700 nM.
With `CC(=O)N(Cc1cc(Cl)cc(Cl)c1)[C@@H]1CCC[C@H](c2nc3nc(F)ccc3[nH]2)C1` [Compound 1932, N-(3,5-dichlorobenzyl)-N-((1R,3S)-3-(5-fluoro-1H-imidazo[4,5-b]pyridin-2-yl)cyclohexyl)acetamide] the IC50 (MetRS (T. brucei)) was 518 nM and the EC50 (T. brucei) was 8910 nM.
`O=C1N[C@@H](Cc2ccc(Cl)cc2Cl)C(O)N1Cc1nc2ccccc2[nH]1` (stereo partly drawn) [Compound 1934, (4S)-1-((1H-benzo[d]imidazol-2-yl)methyl)-4-(2,4-dichlorobenzyl)-5-hydroxyimidazolidin-2-one] gave an IC50 (MetRS (T. brucei)) of 118 nM and an EC50 (T. brucei) of 2000 nM.
`O=C(NCc1nc2ccccc2[nH]1)N[C@H](CO)Cc1ccc(Cl)cc1Cl` [Compound 1935, 1-((1H-benzo[d]imidazol-2-yl)methyl)-3-((S)-3-(2,4-dichlorophenyl)-1-hydroxypropan-2-yl)urea] was tested, and the IC50 (MetRS (T. brucei)) was > 10000 nM and the EC50 (T. brucei) was 9360 nM.
In the case of `OC1NC(Cc2ccc(Cl)cc2Cl)=CN1Cc1nc2ccccc2[nH]1` (centres unmarked) [Compound 1936, 3-((1H-benzo[d]imidazol-2-yl)methyl)-5-(2,4-dichlorobenzyl)-2,3-dihydro-1H-imidazol-2-ol], the IC50 (MetRS (T. brucei)) is reported as 65 nM and the EC50 (T. brucei) is reported as 1830 nM.
